# According to PubChem BioAssay (NCI):
#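 Growth conditions: 96-well plates. Treatment: test compound, 48 hours, 5 concentrations. Analysis: linear interpolation between bracketing concentrations; unreached endpoints set to highest concentration. At the TGI there is no net growth.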
# Tests used:
# Assay in all cases: inhibition of tumour cell growth, NCI panel, 48 h
# 786-0 renal = test system: 786-0 renal
# A498 renal = test system: A498 renal
# A549 NSCLC = test system: A549 NSCLC
# ACHN renal = test system: ACHN renal
# BT-549 breast = test system: BT-549 breast
# CAKI-1 renal = test system: CAKI-1 renal
# CCRF-CEM leukemia = test system: CCRF-CEM leukemia
# COLO 205 colon = test system: COLO 205 colon
# DU-145 prostate = test system: DU-145 prostate
# EKVX NSCLC = test system: EKVX NSCLC
# HCT-116 colon = test system: HCT-116 colon
# HCT-15 colon = test system: HCT-15 colon
# HL-60(TB) leukemia = test system: HL-60(TB) leukemia
# HOP-62 NSCLC = test system: HOP-62 NSCLC
# HOP-92 NSCLC = test system: HOP-92 NSCLC
# HS 578T breast = test system: HS 578T breast
# HT29 colon = test system: HT29 colon
# IGROV1 ovarian = test system: IGROV1 ovarian
# K-562 leukemia = test system: K-562 leukemia
# KM12 colon = test system: KM12 colon
# LOX IMVI melanoma = test system: LOX IMVI melanoma
# M14 melanoma = test system: M14 melanoma
# MALME-3M melanoma = test system: MALME-3M melanoma
# MCF7 breast = test system: MCF7 breast
# MDA-MB-231 breast = test system: MDA-MB-231 breast
# MDA-MB-435 = test system: MDA-MB-435
# MDA-N = test system: MDA-N
# MOLT-4 leukemia = test system: MOLT-4 leukemia
# NCI-H226 lung = test system: NCI-H226 lung
# NCI-H23 lung = test system: NCI-H23 lung
# NCI-H460 lung = test system: NCI-H460 lung
# NCI-H522 lung = test system: NCI-H522 lung
# NCI/ADR-RES ovarian = test system: NCI/ADR-RES ovarian
# OVCAR-3 ovarian = test system: OVCAR-3 ovarian
# OVCAR-4 ovarian = test system: OVCAR-4 ovarian
# OVCAR-5 ovarian = test system: OVCAR-5 ovarian
# OVCAR-8 ovarian = test system: OVCAR-8 ovarian
# PC-3 prostate = test system: PC-3 prostate
# RPMI-8226 leukemia = test system: RPMI-8226 leukemia
# RXF 393 renal = test system: RXF 393 renal
# SF-268 CNS = test system: SF-268 CNS
# SF-295 CNS = test system: SF-295 CNS
# SF-539 CNS = test system: SF-539 CNS
# SK-MEL-2 melanoma = test system: SK-MEL-2 melanoma
# SK-MEL-28 melanoma = test system: SK-MEL-28 melanoma
# SK-MEL-5 melanoma = test system: SK-MEL-5 melanoma
# SK-OV-3 ovarian = test system: SK-OV-3 ovarian
# SN12C renal = test system: SN12C renal
# SNB-19 CNS = test system: SNB-19 CNS
# SNB-75 CNS = test system: SNB-75 CNS
# SR leukemia = test system: SR leukemia
# SW-620 colon = test system: SW-620 colon
# T-47D breast = test system: T-47D breast
# TK-10 renal = test system: TK-10 renal
# U251 CNS = test system: U251 CNS
# UACC-257 melanoma = test system: UACC-257 melanoma
# UACC-62 melanoma = test system: UACC-62 melanoma
# UO-31 renal = test system: UO-31 renal
smiles,measurement,setting,value
N#CC(C#N)=Cc1c[nH]c(=O)[nH]c1=O,TGI,786-0 renal,> 100 µM
same,TGI,A498 renal,> 100 µM
same,TGI,A549 NSCLC,> 100 µM
same,TGI,ACHN renal,> 100 µM
same,TGI,BT-549 breast,> 100 µM
same,TGI,CAKI-1 renal,> 100 µM
same,TGI,CCRF-CEM leukemia,63.9 µM
same,TGI,COLO 205 colon,> 100 µM
same,TGI,DU-145 prostate,> 100 µM
same,TGI,EKVX NSCLC,> 100 µM
same,TGI,HCT-116 colon,> 100 µM
same,TGI,HCT-15 colon,> 100 µM
same,TGI,HL-60(TB) leukemia,> 100 µM
same,TGI,HOP-62 NSCLC,> 100 µM
same,TGI,HOP-92 NSCLC,> 100 µM
same,TGI,HS 578T breast,> 100 µM
same,TGI,HT29 colon,> 100 µM
same,TGI,IGROV1 ovarian,> 100 µM
same,TGI,K-562 leukemia,> 100 µM
same,TGI,KM12 colon,> 100 µM
same,TGI,LOX IMVI melanoma,> 100 µM
same,TGI,M14 melanoma,> 100 µM
same,TGI,MALME-3M melanoma,> 100 µM
same,TGI,MCF7 breast,> 100 µM
same,TGI,MDA-MB-231 breast,> 100 µM
same,TGI,MDA-MB-435,> 100 µM
same,TGI,MDA-N,> 100 µM
same,TGI,MOLT-4 leukemia,> 100 µM
same,TGI,NCI-H226 lung,> 100 µM
same,TGI,NCI-H23 lung,> 100 µM
same,TGI,NCI-H460 lung,> 100 µM
same,TGI,NCI-H522 lung,> 100 µM
same,TGI,NCI/ADR-RES ovarian,> 100 µM
same,TGI,OVCAR-3 ovarian,> 100 µM
same,TGI,OVCAR-4 ovarian,> 100 µM
same,TGI,OVCAR-5 ovarian,> 100 µM
same,TGI,OVCAR-8 ovarian,> 100 µM
same,TGI,PC-3 prostate,> 100 µM
same,TGI,RPMI-8226 leukemia,> 100 µM
same,TGI,RXF 393 renal,> 100 µM
same,TGI,SF-268 CNS,> 100 µM
same,TGI,SF-295 CNS,> 100 µM
same,TGI,SF-539 CNS,> 100 µM
same,TGI,SK-MEL-2 melanoma,> 100 µM
same,TGI,SK-MEL-28 melanoma,> 100 µM
same,TGI,SK-MEL-5 melanoma,> 100 µM
same,TGI,SK-OV-3 ovarian,> 100 µM
same,TGI,SN12C renal,> 100 µM
same,TGI,SNB-19 CNS,> 100 µM
same,TGI,SNB-75 CNS,> 100 µM
same,TGI,SR leukemia,> 100 µM
same,TGI,SW-620 colon,> 100 µM
same,TGI,T-47D breast,> 100 µM
same,TGI,TK-10 renal,> 100 µM
same,TGI,U251 CNS,> 100 µM
same,TGI,UACC-257 melanoma,> 100 µM
same,TGI,UACC-62 melanoma,> 100 µM
same,TGI,UO-31 renal,> 100 µM
CCCCCCCCCCCC[C@@H](O)[C@H]1CC[C@H]([C@H]2CC[C@H]([C@H](O)CC[C@H](O)CCCCCCCC3=C[C@H](C)OC3=O)O2)O1,TGI,786-0 renal,5.66 µM
same,TGI,A498 renal,4.94 µM
same,TGI,A549 NSCLC,4.42 µM
same,TGI,ACHN renal,2.45 µM
same,TGI,BT-549 breast,1.02 µM
same,TGI,CAKI-1 renal,6.81 µM
same,TGI,CCRF-CEM leukemia,4.74 µM
same,TGI,COLO 205 colon,3.94 µM
same,TGI,DU-145 prostate,> 10 µM
same,TGI,EKVX NSCLC,2.82 µM
same,TGI,HCT-116 colon,4.42 µM
same,TGI,HCT-15 colon,4.33 µM
same,TGI,HL-60(TB) leukemia,4.17 µM
same,TGI,HOP-62 NSCLC,2.96 µM
same,TGI,HOP-92 NSCLC,4.23 µM
same,TGI,HS 578T breast,5.48 µM
same,TGI,HT29 colon,3.25 µM
same,TGI,IGROV1 ovarian,3.2 µM
same,TGI,K-562 leukemia,> 10 µM
same,TGI,KM12 colon,2.9 µM
same,TGI,LOX IMVI melanoma,2.76 µM
same,TGI,M14 melanoma,3.11 µM
same,TGI,MCF7 breast,2.72 µM
same,TGI,MDA-MB-231 breast,6.36 µM
same,TGI,MDA-MB-435,4.05 µM
same,TGI,MDA-N,4.49 µM
same,TGI,MOLT-4 leukemia,> 10 µM
same,TGI,NCI-H226 lung,3.48 µM
same,TGI,NCI-H23 lung,2.31 µM
same,TGI,NCI-H460 lung,2.82 µM
same,TGI,NCI/ADR-RES ovarian,3.8 µM
same,TGI,OVCAR-3 ovarian,2.95 µM
same,TGI,OVCAR-5 ovarian,3.25 µM
same,TGI,OVCAR-8 ovarian,4 µM
same,TGI,PC-3 prostate,2.9 µM
same,TGI,RPMI-8226 leukemia,9.49 µM
same,TGI,RXF 393 renal,5.9 µM
same,TGI,SF-268 CNS,3.32 µM
same,TGI,SF-295 CNS,3.01 µM
same,TGI,SF-539 CNS,3.12 µM
same,TGI,SK-MEL-2 melanoma,2.93 µM
same,TGI,SK-MEL-28 melanoma,3.6 µM
same,TGI,SK-MEL-5 melanoma,4.48 µM
same,TGI,SN12C renal,8.13 µM
same,TGI,SNB-19 CNS,2.62 µM
same,TGI,SNB-75 CNS,3.77 µM
same,TGI,SR leukemia,> 10 µM
same,TGI,SW-620 colon,5.82 µM
same,TGI,T-47D breast,> 10 µM
same,TGI,TK-10 renal,2.65 µM
same,TGI,U251 CNS,5.32 µM
same,TGI,UACC-257 melanoma,2.35 µM
same,TGI,UACC-62 melanoma,2.58 µM
same,TGI,UO-31 renal,2.16 µM
